Experimental data: patent US4837228A, “Antiinflammatory and antimicrobial compounds and compositions” (The University of Mississippi, priority 1982, dated 1989)
In brackets after ≈: the same amount, converted by molar mass. Entries after “also recorded” stand apart in the source; their conditions may differ. Where two headings read alike, the source gives them in different places.

Experiments:
[1] = test system: carrageenan-induced rat paw edema; experiment: carrageenan-induced rat paw edema test, intraperitoneal dosing; format: in vivo; parameters: key to mean difference in volume (MDV): post-injection minus pre-injection mean paw volume
Procedure: Two methods were used to assess the antiinflammatory activity of the compounds of the invention: the carrageenan-induced rat paw edema test and, the erythrocyte membrane stabilization assay.
(§1) In the Rat Paw Edema Test, the rats utilized were divided into test groups of six to eight animals, weighed and marked so that individual rats could be identified; one hour before testing all rats were given a 700 mg/kg intraperitoneal injection of ethyl urethane in distilled water to render them tractable during testing. A circle was drawn, with a felt-tipped marker, around the hind leg of each rat just above the ankle, and each rat was dosed with a test or control compound by intraperitoneal injection. Negative control groups received the vehicle; while positive control groups received a dose of phenylbutazone (PBZ) as shown in Table II. Test compounds were given at doses of 60, 120, 240 and 480 mg/kg. The positive controls were given at 120 mg/kg and 60 mg/kg. Phenylbutazone was prepared for injection by suspending it in normal saline using Tween 60. The rats were then held in group cages for 30 minutes. The volume of the left hind paw was measured using a mercury displacement pleysmograph. The paw is dipped into the mercury until the mercury touches the line above the ankle. Mercury is then withdrawn until the mercury returns to its original level. The amount of mercury removed is measured in milliliters (ml). The mercury can be measured accurately to 0.01 ml. This left hind paw was then injected with 0.1 ml of a 5% w/v solution of viscous carageenan in normal saline. The injection was given between the metatarsal bones using a 27 gauge needle, and the rats then held in group cages for 3 hours. The volume of the left hind paws was measured again in the pleysmograph. The results were computed in the following manner:
(§2) a. A mean is taken for both the pre-injection and post-injection paw volume of each test group.
(§3) b. The mean difference in volume (MDV) for each test group is computed by subtracting the pre-injection means from the post-injection mean.
(§4) c. The percent of control is computed for each test [formula] The percent of control is used to compare the efficacy of the various drug treatments.
(§5) d. The percent increase in paw volume is calculated for each group as: [formula] The percent increase is used to compare the amount of edma observed in one experiment to the amount of edma observed in other experiments.
The data from the rat paw test were further analyzed using a one-way analysis of varience (ANOVA) and Duncan's New Multiple Range Test. The pre-injection score of each animal was subtracted from his post-injection score and an analysis of the different scores were conducted.
The procedure described above was followed. […] The vehicle control used was Tween 60, Arlacel and distilled water prepared without CBC(II).

[2] = test system: erythrocyte (heat-induced hemolysis); experiment: erythrocyte membrane stabilization assay (heat-induced erythrocyte hemolysis); format: cell-based; conditions: Erythrocyte; for inhibition at 250 µM: 2.5 × 10^-4 M
Procedure: The published procedure (Proc. Soc. Exp. Biol. Med. 1967; 125; 837-842 Brow et al) for in vitro assay for antiinflammatory agents based on stabilization of erythrocytes was used. All compounds were prepared for administration by dissolving in physiologic saline or suspending in 2% ethanol in saline and the pH adjusted to 7.4 The concentrations tested in one series are given in Table 8. Aspirin (ASA) and phenylbutazone were used as positive controls for comparison of activity. Tests using this procedure were successfully and repeatedly using either 40% or 20% RBC suspensions.

[3] = deaths and adverse effects observed in the rat paw edema test; format: in vivo
Procedure: as §1
The eighth rat died within 24 hours of injection.

Bacillus subtilis = experiment: MIC, two-fold (broth) serial dilution, B. subtilis; format: cell-based; conditions: Bacillus subtilis, read-out: MIC
Procedure: (§6) Both qualitative and quantitative screens were performed. Qualitative screening was accomplished using the agar well diffusion assay technque while quantitative screening was accomplished by the two-fold (broth) serial dilution method to determine the minimum inhibitory concentration (MIC). Innoculation was accomplished with one loop-full of a 1:10 dilution of the 24-hour-old broth culture, (fungal cultures and M.smegmatis more often required 48 to 72 hours of incubation) of the test organisms in sterile water. Streptomycin sulfate was used as a positive control for antibacterial activity while amphitericin B was used as an antifungal positive control. Organisms utilized in the screens included gram-positive, gram-negative, and acid-fast bacteria as well as different types of fungi. […] An intermediate type activity is seen where R is hydrogen. However, where R is lengthened up to C15 a decrease in activity was noted. Total saturation of the two double bonds in the compounds having a methyl side chain lead, in most cases, to an increase in both antifungal and antibacterial activity.

Staphylococcus aureus = experiment: MIC, two-fold (broth) serial dilution, S. aureus; format: cell-based; conditions: Staphylococcus aureus, read-out: MIC
Procedure: as §6

Mycobacterium smegmatis = experiment: MIC, two-fold (broth) serial dilution, M. smegmatis; format: cell-based; conditions: Mycolicibacterium smegmatis, read-out: MIC
Procedure: as §6

Saccharomyces cerevisiae = experiment: MIC, two-fold (broth) serial dilution, S. cerevisiae; format: cell-based; conditions: Saccharomyces cerevisiae, read-out: MIC
Procedure: as §6

[4] = test system: Trichophyton mentagrophytes; experiment: MIC, two-fold (broth) serial dilution, T. mentagrophytes; format: cell-based; conditions: Trichophyton mentagrophytes, read-out: MIC
Procedure: as §6

[5] = test system: carrageenan-induced rat paw edema; experiment: carrageenan-induced rat paw edema test, oral gavage; format: in vivo; parameters: key to mean difference in volume (MDV): ml; post-injection minus pre-injection mean paw volume
Procedure: as §1, with “A circle was drawn, with a felt-tipped marker, around the hind leg of each rat just above the ankle, and each rat was dosed with a test or control compound by intraperitoneal injection.” left out
as §2, §3, §4, §5
[…] The test was conducted twice, once with nonfasted rats and once with rats that had been fasted during the 24 hour period prior to dosing. The 60 mg/kg phenylbutazone control group was not used in the test with fasted animals. Tween 60 in normal saline was the vehicle control for the non-fasted rats and normal saline was the vehicle control for the fasted rats.

[6] = Table 4, 60 mg/kg i.p., fasted rats
[7] = Table 4, 120 mg/kg i.p., fasted rats
[8] = Table 8, 1 × 10^-4 M, read-out: inhibition of heat-induced erythrocyte hemolysis
[9] = Table 6, 60 mg/kg oral, non-fasted rats
[10] = Table 6, 120 mg/kg oral, non-fasted rats
[11] = Table 7, 120 mg/kg oral, fasted rats, doses approximate

CC(C)=CCCC1(C)C=Cc2c(O)cc(C)cc2O1 (centres unmarked) [CBC (II), 2 methyl-2(4'-methyl-pent-3'-enyl)-5-hydroxy-7-metylchromene]
mean difference in volume (MDV) [1, 6]: 0.090 | percent increase in paw volume [1, 6]: 6.742% | percent of control [1, 6]: 47.059% | mean difference in volume (MDV) [1, 7]: 0.070 | percent increase in paw volume [1, 7]: 4.956% | percent of control [1, 7]: 36.601% | antiinflammatory activity compared with PBZ in words ([1]; i.p.): slightly less activity than PBZ at the 120 mg/kg dose; also recorded: as active at PBZ at 60 mg/kg | antiinflammatory effect in words ([1]; i.p.): active at both 60 mg/kg and 120 mg/kg | inhibition at 100 µM [2, 8]: 86% | toxic or adverse effects ([3]; 60 and 120 mg/kg i.p.): No toxic or adverse effects were observed | MIC (Bacillus subtilis; 24 h): 3.12 µg/mL (≈ 12.1 µM) | MIC (Bacillus subtilis; 48 h): 3.12 µg/mL (≈ 12.1 µM) | MIC (Staphylococcus aureus; 24 h): 3.12 µg/mL (≈ 12.1 µM) | MIC (Staphylococcus aureus; 48 h): 3.12 µg/mL (≈ 12.1 µM) | MIC (Mycobacterium smegmatis; 24 h): 3.12 µg/mL (≈ 12.1 µM) | MIC (Mycobacterium smegmatis; 48 h): 6.25 µg/mL (≈ 24.2 µM) | MIC (Saccharomyces cerevisiae; 48 h): 6.25 µg/mL (≈ 24.2 µM) | MIC (Saccharomyces cerevisiae; 72 h): 12.5 µg/mL (≈ 48.4 µM) | MIC ([4]; 48 h): 6.25 µg/mL (≈ 24.2 µM) | MIC ([4]; 72 h): 6.25 µg/mL (≈ 24.2 µM)

CCCCC1C(=O)N(c2ccccc2)N(c2ccccc2)C1=O [Phenylbutazone, reference compound]
inhibition at 60 mg/kg ([1]; Rattus norvegicus, ip, Table 5, 60 mg/kg i.p., * P = 0.01): 52% | inhibition at 120 mg/kg ([1]; Rattus norvegicus, ip, Table 5, 120 mg/kg i.p., * P = 0.01, read-out: inhibition of carrageenan-induced rat paw edema): 76% | percent increase in paw volume ([1]; Table 1, 120 mg/kg i.p.): 10.316% | percent of control ([1]; Table 1, 120 mg/kg i.p.): 22.973% | mean difference in volume (MDV) ([1]; Table 1, 120 mg/kg i.p., paw volume measured in ml): 0.106 | group mean difference score ([1]; Table 3, 120 mg/kg): 0.016 | difference of mean scores versus vehicle control (Duncan's test) ([1]; Table 3, 120 mg/kg, ** p 0.01): 0.356 | difference of mean scores (Duncan's test) ([1]; Table 3, PBZ 120 mg/kg versus CBC 240 mg/kg): 0.102 | difference of mean scores (Duncan's test) ([1]; Table 3, PBZ 120 mg/kg versus CBC 480 mg/kg, * p 0.05): 0.149 | mean difference in volume (MDV) [1, 6]: 0.090 | percent increase in paw volume [1, 6]: 6.742% | percent of control [1, 6]: 47.059% | mean difference in volume (MDV) [1, 7]: 0.046 | percent increase in paw volume [1, 7]: 3.254% | percent of control [1, 7]: 24.183% | inhibition at 120 mg/kg ([5]; Rattus norvegicus, po, Table 5, 120 mg/kg oral, fasted rats, N.S., read-out: inhibition of carrageenan-induced rat paw edema): 36% | inhibition at 60 mg/kg ([5]; Rattus norvegicus, po, read-out: inhibition of carrageenan-induced rat paw edema, Table 5, 60 mg/kg oral, nonfasted rats, * P = 0.01): 37% | inhibition at 120 mg/kg ([5]; Rattus norvegicus, po, read-out: inhibition of carrageenan-induced rat paw edema, Table 5, 120 mg/kg oral, nonfasted rats): 22% | mean difference in volume (MDV) [5, 9]: 0.489 | percent increase in paw volume [5, 9]: 50.257% | percent of control [5, 9]: 78.200% | mean difference in volume (MDV) [5, 10]: 0.392 | percent increase in paw volume [5, 10]: 36.098% | percent of control [5, 10]: 62.667% | mean difference in volume (MDV) [5, 11]: 0.403 | percent increase in paw volume [5, 11]: 31.051% | percent of control [5, 11]: 64.400% | antiinflammatory activity compared with PBZ in words ([5]; oral): slightly more effective than CBC at 120 mg/kg in the nonfasted rats | inhibition at 100 µM [2, 8]: 16% | inhibition at 20 µM ([2]; Table 8, 2 × 10^-5 M, read-out: inhibition of heat-induced erythrocyte hemolysis): 10% | inhibition at 250 µM ([2]; Table 9 Test 1 (20% RBC), read-out: percent inhibition of heat-induced erythrocyte hemolysis): 54% | inhibition at 25 µM ([2]; Table 9 Test 1 (20% RBC), 2.5 × 10^-5 M, read-out: percent inhibition of heat-induced erythrocyte hemolysis): 31% | inhibition at 250 µM ([2]; Table 9 Test 2 (40% RBC), read-out: percent inhibition of heat-induced erythrocyte hemolysis): 70% | inhibition at 20 µM ([2]; Table 9 Test 3 (20% RBC), 2.0 × 10^-5 M, read-out: percent inhibition of heat-induced erythrocyte hemolysis): 10% | inhibition at 250 µM ([2]; Table 9 Test 3 (20% RBC), read-out: percent inhibition of heat-induced erythrocyte hemolysis): 49% | inhibition at 100 µM ([2]; read-out: percent inhibition of heat-induced erythrocyte hemolysis, Table 9 Test 3 (20% RBC), 1.0 × 10^-4 M): 16% | inhibition at 20 µM ([2]; 2×10^-5 M, read-out: inhibition of heat-induced red cell hemolysis): 10% | inhibition at 100 µM ([2]; 10^-4 M, read-out: inhibition of heat-induced red cell hemolysis): 16% | deaths ([3]; 240 mg/kg i.p. plus ethyl urethane i.p., listed as PBZ): rapid deaths; also recorded: Seven of the eight animals receiving 240 mg/kg of PBZ died before the test could be completed
